Measured values as given in patent US20230240290A1, “USE OF (Z)-3-HEXENYL ESTERS AND METHOD FOR PROTECTING PLANTS AGAINST PESTS” (UNIVERSITAT POLITÈCNICA DE VALÈNCIA, priority 2020, published 2023).

Tests used:
[1] = system: SI-PI-I (marker for plant proteinase inhibitors); assay: Transcriptional response of SI-PI-I in tomato plants exposed to volatiles (laboratory); type: in vivo, Solanum lycopersicum cv. Moneymaker; details: intact tomato plants exposed 24 h; filter paper, 1:10,000 ester:methanol; n=8
Method: (§1) Moneymaker tomato plants were used. Two weeks after seed germination, the seedlings were individually transplanted into pots (8×8×8 cm). The plants were kept at 25±2° C., with a constant relative humidity of 65%±5% and a 14:10 h (light:dark) photoperiod. Tomato plants that had not received any pesticide treatment at four weeks of age (about 20 cm tall) were used. All volatiles used were obtained from Sigma-Aldrich (St. Louis, Mo., USA). Each volatile was exposed by using a 2×2 cm piece of filter paper on which 10 μl of a solution containing the corresponding volatile at a concentration of 1:10,000 [(Z)-3-hexenyl ester:methanol] was impregnated as an emitting source of the corresponding volatile (Pérez-Hedo, M. et al. Biocontrol, 63: 203-213 (2018)).
(§2) To activate a plant, two pieces of filter paper impregnated with the volatile were placed at the bottom of a 30×30×30 cm plastic cage (BugDorm-1 Insect Tents; MegaView Science Co., Ltd, Taichung, Taiwan) into which the plant was introduced. A control treatment was carried out in which the two pieces of filter paper were impregnated with 10 μl of methanol. Eight repetitions per treatment were performed. The plants of the treatments were kept exposed to the volatile without disturbing for 24 hours in separate and isolated climatic chambers to avoid any interference from the volatiles and were kept at 25±2° C., 65±10% RH, and a 14:10 h (L:D) photoperiod. […]
(§3) The methodology followed for extracting and quantifying gene expression was described by Pérez-Hedo et al. Journal of Pest Science 3: 543-554 (2015). The primers used were forward primer: 5′-[…]-3′ (SEQ ID NO: 1) and reverse primer: 5′-[…]-3′ (SEQ ID NO: 2) for the quantification of PR1, forward primer: 5′-[…]-3′ (SEQ ID NO: 3) and reverse primer: 5′-[…]-3′ (SEQ ID NO: 4) for SI-PI-I, and forward primer: 5′-[…]-3′ (SEQ ID NO: 5) and reverse primer: 5′-[…]-3′ (SEQ ID NO: 6) for the SI-PI-II gene. […]

[2] = system: PR1 (marker gene for the salicylic acid signaling pathway); assay: Transcriptional response of defense gene PR1 in tomato plants exposed to volatiles (laboratory); type: in vivo, Solanum lycopersicum cv. Moneymaker; details: intact tomato plants exposed 24 h; filter paper, 1:10,000 ester:methanol; n=8
Method: as §1, §2, §3

[3] = system: SI-PI-II (marker for plant proteinase inhibitors); assay: Transcriptional response of SI-PI-II in tomato plants exposed to volatiles (laboratory); type: in vivo, Solanum lycopersicum cv. Moneymaker; details: intact tomato plants exposed 24 h; filter paper, 1:10,000 ester:methanol; n=8
Method: as §1, §2, §3

jasmonic acid pathway = details: corn exposed to the volatile; Engelberth et al. 2004; cited from earlier work
Encarsia formosa = details: Pérez-Hedo et al. Biocontrol 2018; cited from earlier work
T. absoluta = details: Pérez-Hedo et al. Biocontrol 2018; cited from earlier work
Bemisia tabaci = details: Pérez-Hedo et al. Biocontrol 2018; cited from earlier work

| Transcriptional response of SI-PI-I compared to the control [1] | Transcriptional response of SI-PI-II compared to the control [3] | Structure (SMILES) | Transcriptional response of PR1 compared to the control [2] | Jasmonic acid pathway expression (jasmonic acid pathway) | also measured |
| --- | --- | --- | --- | --- | --- |
| significantly overexpressed | significantly overexpressed | CC/C=C\CCOC(C)=O [(Z)-3-hexenyl acetate] | significantly overexpressed | overexpress |  |
|  |  | COC(=O)c1ccccc1O [methyl salicylate] |  |  | Effect of the volatile on E. formosa (Encarsia formosa): attractive; Effect of the volatile on T. absoluta (T. absoluta): no effect; Effect of the volatile on B. tabaci (Bemisia tabaci): repellent |
|  |  | CC/C=C\CC=O [(Z)-3-hexenal] |  | overexpress |  |
|  |  | CC/C=C\CCO [(Z)-3-hexen-1-ol] |  | overexpress |  |
| significantly overexpressed | significantly overexpressed | CC/C=C\CCOC(=O)CCC [(Z)-3-hexenyl butanoate] | significantly overexpressed |  |  |
